Results: PubChem BioAssay (NCI)
Values joined by “and” are separate entries in the source; they are usually repeats but may differ in a detail not shown here. Equal entries are not always repeated.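 Results reflect a 48-hour exposure of cells in 96-well plates to compound at five concentrations. GI50: concentration for 50% inhibition of growth. TGI: total growth inhibition.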

How the values were obtained:
Assay in all cases: growth of human tumour cells (NCI), 48 h
SF-295 CNS = system: SF-295 CNS
MOLT-4 leukemia = system: MOLT-4 leukemia
HCT-15 colon = system: HCT-15 colon
DLD-1 colon = system: DLD-1 colon
HCT-116 colon = system: HCT-116 colon
DMS 114 small cell lung = system: DMS 114 small cell lung
A498 renal = system: A498 renal
SK-MEL-2 melanoma = system: SK-MEL-2 melanoma
NCI-H226 lung = system: NCI-H226 lung

Row | Compound | GI50 (SF-295 CNS) | TGI (SF-295 CNS) | GI50 (MOLT-4 leukemia) | TGI (MOLT-4 leukemia) | TGI (HCT-15 colon) | TGI (DLD-1 colon) | GI50 (HCT-116 colon) | TGI (HCT-116 colon) | GI50 (DMS 114 small cell lung) | TGI (DMS 114 small cell lung) | GI50 (A498 renal) | TGI (A498 renal) | TGI (SK-MEL-2 melanoma) | GI50 (NCI-H226 lung) | TGI (NCI-H226 lung)
1 | COc1cc(C2c3cc4c(cc3[C@@H](Nc3ccc(N)cc3)C3COC(=O)[C@H]23)OCO4)cc(OC)c1O (stereo partly drawn) | 502 nM | 4.76 µM | 175 nM and 29.2 nM | 0.8 µM and 0.825 µM | 22.6 µM | 22.2 µM | 973 nM | 23 µM | 911 nM | 8.77 µM | 781 nM | 6.39 µM | 18.9 µM | 336 nM | 0.868 µM and 4.7 µM
2 | COc1ccc(C(=O)O/N=C2/CCC/C2=C\c2ccccc2)cc1 |  | > 100 µM |  | > 100 µM | > 100 µM | > 100 µM |  | > 100 µM |  | > 100 µM |  | > 100 µM | > 100 µM |  | > 100 µM
3 | COC(=O)Cc1nc2ccccc2o1 |  | > 100 µM |  | > 100 µM | > 100 µM | > 100 µM |  | > 100 µM |  | > 100 µM |  | > 100 µM | > 100 µM |  | > 100 µM
4 | C[n+]1c(N)n(C(=O)OCc2ccccc2)c(=O)c2c1ncn2C(=O)OCc1ccccc1 |  | > 100 µM |  | > 100 µM | > 100 µM | > 100 µM |  | > 100 µM |  | > 100 µM |  | > 100 µM | > 100 µM |  | 59.8 µM
5 | CC1=C(C(=O)Nc2ccccc2)C(c2ccc(C(C)C)cc2)C(C(=O)Nc2ccccc2)=C(C)N1 |  | > 100 µM |  | 57.5 µM | 61.4 µM | > 100 µM |  | 27 µM |  | 47.5 µM |  | > 72.3 µM | 31.2 µM |  | 54.9 µM
6 | COc1ccc2nc3cccc(C(=O)NCCN(C)C)c3nc2c1 |  | > 22.8 µM |  | 1.19 µM | 6.15 µM | 5.12 µM |  | 2.6 µM |  | 3.45 µM |  | 3.34 µM | 3.68 µM |  | 3.85 µM
7 | CCOC(=O)/N=c1/nc(N(C)C)ss1 |  | > 100 µM |  | > 100 µM | > 100 µM | > 100 µM |  | > 100 µM |  | > 100 µM |  | > 100 µM | > 100 µM |  | > 100 µM
8 | NS(=O)(=O)c1ccc(NC(=O)COC(=O)c2cccc3c(=O)c4ccccc4[nH]c23)cc1 |  | 52.6 µM |  | > 47.2 µM | > 100 µM | > 100 µM |  | > 74.9 µM |  | 52.3 µM |  | 51.8 µM | 69.8 µM |  | 61.1 µM
9 | COc1ccc(C2=NOP(c3ccccc3)(c3ccccc3)(c3ccccc3)C2)cc1 |  | 61.2 µM |  | 41.2 µM | > 53 µM | > 61.7 µM |  | 21.4 µM |  | 26.2 µM |  | 89.7 µM | > 60 µM |  | 98.4 µM
10 | Cc1ccc(NC(=O)CCC(=O)C(C#N)c2ccccc2)cc1C (stereo not drawn) |  | > 100 µM |  | > 100 µM | > 100 µM | > 100 µM |  | > 100 µM |  | > 100 µM |  | > 100 µM | > 100 µM |  | > 100 µM
11 | COC(=O)C1CC(C(=O)OC)c2nc3cc(C)c(C)cc3nc21 (stereo not drawn) |  | > 100 µM |  | > 100 µM | > 100 µM | > 100 µM |  |  |  | > 100 µM |  | > 100 µM | > 100 µM |  | > 100 µM
12 | CN(C)CCNc1nc(-c2cccs2)cc(-c2cccs2)n1 |  | 28.2 µM |  | 13.4 µM | 33.2 µM | 55.1 µM |  | 23.4 µM |  | 33.6 µM |  | 25.4 µM | 32.9 µM |  | 30.5 µM
